Measured values as given in patent US20240360126A1, “PYRAZOLO[3,4-B]PYRIDINE COMPOUNDS FOR THE TREATMENT OF AUTOIMMUNE DISEASE” (Hoffmann-La Roche Inc., priority 2021, published 2024).

Columns and labels:
hERG K+ channel = molecular target: T1, hERG K+ channel (Homo sapiens, UniProt Q12809); assay: hERG channel inhibition assay (patch-clamp, CHO-hERG cells); format: cell-based; settings: for IC50 / IC20: CHO-hERG cells, whole-cell patch-clamp; for IC20: human, CHO cells stably expressing hERG; for hERG IC20/TLR7 IC50 / hERG IC20/TLR8 IC50 / hERG IC20/TLR9 IC50: safety ratio
T1 construct: expressed in transfected cells; host or cells: CHO (Chinese hamster ovary)
T1 sequence (Q12809 whole entry): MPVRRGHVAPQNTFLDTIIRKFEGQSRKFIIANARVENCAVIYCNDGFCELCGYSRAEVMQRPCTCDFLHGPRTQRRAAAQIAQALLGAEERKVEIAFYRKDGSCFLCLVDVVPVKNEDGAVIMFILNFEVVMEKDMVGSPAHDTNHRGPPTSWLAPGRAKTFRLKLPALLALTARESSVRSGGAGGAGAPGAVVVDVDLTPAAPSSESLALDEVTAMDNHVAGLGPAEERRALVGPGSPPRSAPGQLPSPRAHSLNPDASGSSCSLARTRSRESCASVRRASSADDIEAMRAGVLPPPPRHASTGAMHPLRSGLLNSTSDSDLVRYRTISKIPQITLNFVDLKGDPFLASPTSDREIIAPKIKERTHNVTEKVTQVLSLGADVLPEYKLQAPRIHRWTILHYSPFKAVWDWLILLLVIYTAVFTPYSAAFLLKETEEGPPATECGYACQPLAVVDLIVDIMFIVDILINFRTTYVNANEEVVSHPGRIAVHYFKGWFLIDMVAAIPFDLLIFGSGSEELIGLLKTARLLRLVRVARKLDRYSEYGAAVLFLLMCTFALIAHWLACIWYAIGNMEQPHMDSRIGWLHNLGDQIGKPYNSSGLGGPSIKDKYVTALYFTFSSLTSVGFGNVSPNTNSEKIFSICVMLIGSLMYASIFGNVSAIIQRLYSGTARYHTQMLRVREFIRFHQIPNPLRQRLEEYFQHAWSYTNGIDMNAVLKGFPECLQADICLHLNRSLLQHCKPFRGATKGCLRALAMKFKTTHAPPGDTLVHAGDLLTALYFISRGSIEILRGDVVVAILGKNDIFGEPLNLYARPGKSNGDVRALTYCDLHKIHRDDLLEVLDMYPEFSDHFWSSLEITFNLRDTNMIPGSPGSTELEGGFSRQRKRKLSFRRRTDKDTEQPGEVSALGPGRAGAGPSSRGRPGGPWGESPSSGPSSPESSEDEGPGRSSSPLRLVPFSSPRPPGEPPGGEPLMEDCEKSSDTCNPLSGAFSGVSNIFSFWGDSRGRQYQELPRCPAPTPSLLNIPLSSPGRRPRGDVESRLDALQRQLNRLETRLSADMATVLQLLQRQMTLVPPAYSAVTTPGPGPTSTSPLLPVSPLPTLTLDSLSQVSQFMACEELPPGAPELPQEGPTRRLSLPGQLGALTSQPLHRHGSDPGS
Procedure: The hERG K^+ channels were cloned in humans and stably expressed in a CHO (Chinese hamster ovary) cell line. CHOhERG cells were used for patch-clamp (voltage-clamp, whole-cell) experiments. Cells were stimulated by a voltage pattern to activate hERG channels and conduct IKhERG Currents (rapid delayed outward rectifier potassium current of the hERG channel). After the cells were stabilized for a few minutes, the amplitude and kinetics of IKhERG were recorded at a stimulation frequency of 0.1 Hz (6 bpm). Thereafter, the test compound was added to the preparation at increasing concentrations. For each concentration, an attempt was made to reach a steady-state effect, usually, this was achieved within 3-10 min at which time the next highest concentration was applied. The amplitude and kinetics of IKhERG are recorded in each concentration of the drug which were compared to the control values (taken as 100%). (references: Redfe W S, Carlsson L, Davis A S, Lynch W G, MacKenzie I, Palethorpe S, Siegl P K, Strang I, Sullivan A T, Wallis R, Camm A J, Hammond T G. 2003; Relationships between preclinical cardiac electrophysiology, clinical QT interval prolongation and torsade de pointes for a broad range of drugs: evidence for a provisional safety margin in drug development. Cardiovasc. Res. 58:32-45, Sanguinetti M C, Tristani-Firouzi M. 2006; hERG potassium channels and cardiac arrhythmia. Nature 440:463-469, Webster R, Leishman D, Walker D. 2002; Towards a drug concentration effect relationship for QT prolongation and torsades de pointes. Curr. Opin. Drug Discov. Devel. 5:116-26).

TLR9 = molecular target: T2, TLR9 (Homo sapiens, UniProt Q9NR96); assay: Human PBMC cell-based assay; design: These cells express TLR7, TLR8, or TLR9, and therefore are natural responders to respective ligand stimulation; endogenous in cells; host or cells: human PBMC from healthy donor whole blood; settings: CpG ODN 2216 at 1 μM, read-out: hPBMC/TLR9 IC50
T2 sequence (Q9NR96 26-1032): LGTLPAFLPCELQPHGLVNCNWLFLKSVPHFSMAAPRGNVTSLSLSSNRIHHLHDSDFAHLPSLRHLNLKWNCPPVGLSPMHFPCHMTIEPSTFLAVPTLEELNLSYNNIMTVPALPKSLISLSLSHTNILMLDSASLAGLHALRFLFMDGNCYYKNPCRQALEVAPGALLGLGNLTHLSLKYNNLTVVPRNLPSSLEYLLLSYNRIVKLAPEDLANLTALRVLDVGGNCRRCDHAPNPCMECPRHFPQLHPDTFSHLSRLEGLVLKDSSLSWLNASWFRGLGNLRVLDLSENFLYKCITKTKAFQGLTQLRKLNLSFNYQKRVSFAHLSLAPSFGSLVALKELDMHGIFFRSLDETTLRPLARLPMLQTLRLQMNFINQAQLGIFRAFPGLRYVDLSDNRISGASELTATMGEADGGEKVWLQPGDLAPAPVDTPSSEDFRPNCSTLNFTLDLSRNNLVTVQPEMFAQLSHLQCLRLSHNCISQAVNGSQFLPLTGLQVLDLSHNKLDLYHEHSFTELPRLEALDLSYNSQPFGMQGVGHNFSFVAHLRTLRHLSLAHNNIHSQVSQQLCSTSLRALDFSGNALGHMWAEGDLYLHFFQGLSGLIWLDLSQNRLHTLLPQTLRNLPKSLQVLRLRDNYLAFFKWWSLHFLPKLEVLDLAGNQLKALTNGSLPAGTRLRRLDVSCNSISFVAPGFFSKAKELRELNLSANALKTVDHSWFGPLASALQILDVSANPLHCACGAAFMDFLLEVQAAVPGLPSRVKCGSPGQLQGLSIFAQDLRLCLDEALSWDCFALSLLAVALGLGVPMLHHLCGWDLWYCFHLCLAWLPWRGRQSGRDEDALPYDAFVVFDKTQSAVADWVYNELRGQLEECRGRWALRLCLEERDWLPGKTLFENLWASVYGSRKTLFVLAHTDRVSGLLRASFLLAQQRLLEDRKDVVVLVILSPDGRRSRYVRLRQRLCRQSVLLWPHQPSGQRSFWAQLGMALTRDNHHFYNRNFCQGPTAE
From the text: Unlike the HEK reporter cell lines, human peripheral blood mononuclear cell (PBMC) represents primary human immune cells in blood mainly consisting of lymphocytes, monocytes, and dendritic cells. These cells express TLR7, TLR8, or TLR9, and therefore are natural responders to respective ligand stimulation. Upon activation of these TLRs, PBMCs secrete similar cytokines and chemokines in vitro and in vivo, and therefore the in vitro potency of a TLR7/8/9 antagonist in human PBMC is readily translatable to its pharmacodynamics response in vivo.
Human peripheral blood mononuclear cells (PBMC) were isolated from freshly-drawn lithium-heparinized (Lithium Heparin Plus blood Collection tube, BD Vacutainer®) healthy donor whole blood by density gradient (Ficoll-Paque™ PLUS, GE Healthcare life Sciences). Briefly, […] was diluted with 25 mL PBS (without Ca^2+, Mg^2+) in a 50 mL conical tube with porous barrier (Leucosep tube, Greiner bio-one), where 15.5 mL Ficoll-Paque was under laid after spinning. Tubes were centrifuged for 20 minutes at 800×g (1946 rpm) with the brake in the off position, and PBMC were collected from the buffy coat. Cells were then washed twice in PBS, and red blood cells were lysed by suspension in 2 mL (Red Blood Cell Lysis Buffer, Alfa Aesar) for 5-10 minutes at room temperature. After a final wash in PBS, PBMC were resuspended at a final concentration of 2×10^6 cells/mL in RPMI-1640 media with GlutaMAX™ (Gibco) supplemented with 10% Fetal Bovine Serum (Sigma) and plated at 150 μL/well (3×10^5 cells/well) in tissue culture treated round bottom 96-well plates (Corning Incorporated). Antagonist compounds (compounds of this invention) solubilized and serial diluted in 100% DMSO were added in duplicate to cells to yield a final concentration of 1% DMSO (v/v). PBMC were incubated with antagonist compounds for 30 minutes at 37° C., 5% CO2 before adding various TLR agonist reagents in 48 μL complete media per well as follows (final concentrations indicated): CpG ODN 2216 (InvivoGen) at 1 μM for TLR9, ORN 06/LyoVec (InvivoGen) at […] for TLR8 and R848 (InvivoGen) at 1 μg/mL for TLR7 and TLR8. PBMC were incubated overnight at 37° C. with 5% C02. Cell culture supernatants were collected, and levels of various human cytokines were assessed by Luminex assay (ProcartaPlex™ Multiplex Immunoassay, Invitrogen) or ELISA procedure according to the manufacturer's recommended protocol (eBioscience, ThermoFisher Scientific). Viability of the cells was also checked with Cell Viability Assay (CellTiter Glo® Luminescent Cell Viability Assay, Promega).

Row | SMILES | IC50 (hERG K+ channel) [µM] | IC20 (hERG K+ channel) [µM] | hERG IC20/TLR7 IC50 (hERG K+ channel) | hERG IC20/TLR8 IC50 (hERG K+ channel) | hERG IC20/TLR9 IC50 (hERG K+ channel) | IC50 (TLR9) [µM]
1 | Cc1cc(N2CCC(c3ccc(N4CCNCC4)cn3)CC2)c2cnn(C)c2n1 [Example 2, 1,6-dimethyl-4-[4-(5-piperazin-1-yl-2-pyridyl)-1-piperidyl]pyrazolo[3,4-b]pyridine] | > 20 | > 10 | >370.4 | >476.2 | >70.4 | 0.47
2 | Cc1cc(N2CC[C@H](c3ccc(N4CC(C)(N)C4)cn3)[C@@H](C)C2)c2cnn(C)c2n1 [Example 43, 1-[6-[(3R,4S)-1-(1,6-dimethylpyrazolo[3,4-b]pyridin-4-yl)-3-methyl-4-piperidyl]-3-pyridyl]-3-methyl-azetidin-3-amine] | > 20 | > 10 | >625.0 | >1666.7 | >49.3 | 0.47
3 | CO[C@@H]1CN(c2cnc([C@@H]3CCN(c4cc(C)nc5c4cnn5C)C[C@H]3C)c(C)c2)C[C@H]1N [Example 26, (3R,4R)-1-[6-[(3S,4R)-1-(1,6-dimethylpyrazolo[3,4-b]pyridin-4-yl)-3-methyl-4-piperidyl]-5-methyl-3-pyridyl]-4-methoxy-pyrrolidin-3-amine] | > 20 | > 10 | >833.3 | >714.3 | >91.7 | 0.33
4 | Cc1cc(N2CCNCC2)ncc1C1CCN(c2ccnc3c2cnn3C)CC1 [Example 6, 1-methyl-4-[4-(4-methyl-6-piperazin-1-yl-3-pyridyl)-1-piperidyl]pyrazolo[3,4-b]pyridine] | > 10 | 4.4 | 628.6 | 118.9 | 21.2 | 0.617
5 | Cc1cc(N2CC[C@@H](c3ncc(N4C[C@H]5NCCO[C@@H]5C4)cc3C)[C@H](C)C2)c2cnn(C)c2n1 [Example 33, (4aR,7aR)-6-[6-[(3S,4R)-1-(1,6-dimethylpyrazolo[3,4-b]pyridin-4-yl)-3-methyl-4-piperidyl]-5-methyl-3-pyridyl]-3,4,4a,5,7,7a-hexahydro-2H-pyrrolo[3,4-b][1,4]oxazine] | > 10 | 4.1 | 372.7 | 1366.7 | 51.9 | 0.146
6 | COC[C@H]1CN(c2cnc([C@@H]3CCN(c4cc(C)nc5c4cnn5C)C[C@H]3C)c(C)c2)CCN1 [Example 29, 4-[(3S,4R)-4-[5-[(3R)-3-(methoxymethyl)piperazin-1-yl]-3-methyl-2-pyridyl]-3-methyl-1-piperidyl]-1,6-dimethyl-pyrazolo[3,4-b]pyridine] | > 10 | 4.4 | 880.0 | 550.0 | 18.5 | 0.71
7 | Cc1cc(N2CCC(c3ncc(N4CCNCC4)cc3C)CC2)c2cnn(C)c2n1 [Example 7, 1,6-dimethyl-4-[4-(3-methyl-5-piperazin-1-yl-2-pyridyl)-1-piperidyl]pyrazolo[3,4-b]pyridine] | > 20 | 5.1 | 463.6 | 175.9 | 98.1 | 0.42
8 | Cc1cc(N2CC[C@@H](c3ncc(N4CC(C)(N)C4)cc3C)[C@H](C)C2)c2cnn(C)c2n1 [Example 32, 1-[6-[(3S,4R)-1-(1,6-dimethylpyrazolo[3,4-b]pyridin-4-yl)-3-methyl-4-piperidyl]-5-methyl-3-pyridyl]-3-methyl-azetidin-3-amine] | > 10 | 4.4 | 550.0 | 293.3 | 23.7 | 0.32
